Experimental findings from US6743816B2, “Imidazole derivatives with anti-inflammatory activity” (J. Uriach & Cia S.A., priority 2000, dated 2004) are described below.

For test [1], the target named is T1, human COX-1 (U-937 from human histiocitic lymphoma) (Homo sapiens, UniProt P23219).
T1 construct: cell lines expressing human COX-1 (U-937 from human histiocitic lymphoma); endogenous in cells; host or cells: U-937 (human histiocytic lymphoma)
In words: Inhibition of COX-1 activity in human cell line (PGE2 production after arachidonic acid). The format is cell-based. The settings on record: 0.1 μM test compound; U-937 cells; PGE2 after 10 μM arachidonic acid. How it is done:
(§1) Inhibition of Cyclooxygenase-1 (COX-1) and Cyclooxygenase-2 (COX-2) Activity in Human Cell Lines
The inhibition of COX-1 and COX-2 is determined by assessing the PGE2 production after stimulation with arachidonic acid in cell lines expressing human COX-1 (U-937 from human histiocitic lymphoma) and human COX-2 (143.98.2 from human osteosarcoma), respectively.
(§2) The osteosarcoma-derived cells were cultured in 1 mL of DMEM culture medium supplemented with 10% fetal calf serum, in 24-well multidishes until confluence. U-937 cells were cultured in RPMI medium supplemented with 10% fetal calf serum in flasks.
(§3) To evaluate COX-2 activity, the medium was removed and replaced with Hepes-buffered saline solution (HBSS) without Ca^2+/Mg^2+ (2×10^5 cells/well). To evaluate COX-1 activity, the medium was removed and U-937 cells were resuspended to a final density of 3×10^6 cells/mL in HBSS without Ca^2+/Mg^2+ (1 mL/well, in 24-well multidishes). 1 μL of a solution of the test compound dissolved in DMSO or vehicle was added, and the samples were incubated for 15 min at 37° C. (5% CO2 and 95% humidity). Arachidonic acid was added (final concentration: 10 μM) and the samples were incubated for 10 min more. Next the reactions were quenched by adding indomethacin (8 mM, 30 μL). The amount of PGE2 in the supernatant was determined by specific enzymatic immunoassay (Kit Prostaglandin E2, Biotrak EIA system RPN222, Amersham Pharmacia Biotech). All the assays were performed in triplicate.

Test [2] deals with T2, human COX-2 (143.98.2 from human osteosarcoma) (Homo sapiens, UniProt P35354).
T2 construct: human COX-2 (143.98.2 from human osteosarcoma); endogenous in cells; host or cells: 143.98.2 (human osteosarcoma)
T2 sequence (P35354 18-604): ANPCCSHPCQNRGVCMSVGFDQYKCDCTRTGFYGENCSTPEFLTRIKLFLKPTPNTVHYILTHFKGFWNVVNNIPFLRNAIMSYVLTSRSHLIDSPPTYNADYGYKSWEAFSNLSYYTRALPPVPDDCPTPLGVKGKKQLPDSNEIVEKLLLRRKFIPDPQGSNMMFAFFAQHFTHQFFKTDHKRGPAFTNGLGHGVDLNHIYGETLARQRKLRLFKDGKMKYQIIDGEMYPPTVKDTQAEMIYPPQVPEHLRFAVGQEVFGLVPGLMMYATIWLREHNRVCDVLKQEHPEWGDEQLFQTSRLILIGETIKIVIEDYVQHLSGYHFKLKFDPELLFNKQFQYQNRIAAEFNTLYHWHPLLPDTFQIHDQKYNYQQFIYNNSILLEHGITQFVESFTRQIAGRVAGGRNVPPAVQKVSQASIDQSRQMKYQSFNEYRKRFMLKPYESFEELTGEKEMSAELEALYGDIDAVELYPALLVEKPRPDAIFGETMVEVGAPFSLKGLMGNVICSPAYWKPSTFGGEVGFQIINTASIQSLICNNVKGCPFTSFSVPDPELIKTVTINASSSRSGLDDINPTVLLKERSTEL
The test is described as follows: Inhibition of COX-2 activity in human cell line (PGE2 production after arachidonic acid). The format is cell-based. The settings on record: 0.1 μM test compound; 143.98.2 osteosarcoma cells; PGE2 after 10 μM arachidonic acid. How it is done: as §1, §2
as §3, with “(5% CO2 and 95% humidity).” left out

Structures can show the parent of a compound that is named as a salt.

T1 sequence (P23219 24-599): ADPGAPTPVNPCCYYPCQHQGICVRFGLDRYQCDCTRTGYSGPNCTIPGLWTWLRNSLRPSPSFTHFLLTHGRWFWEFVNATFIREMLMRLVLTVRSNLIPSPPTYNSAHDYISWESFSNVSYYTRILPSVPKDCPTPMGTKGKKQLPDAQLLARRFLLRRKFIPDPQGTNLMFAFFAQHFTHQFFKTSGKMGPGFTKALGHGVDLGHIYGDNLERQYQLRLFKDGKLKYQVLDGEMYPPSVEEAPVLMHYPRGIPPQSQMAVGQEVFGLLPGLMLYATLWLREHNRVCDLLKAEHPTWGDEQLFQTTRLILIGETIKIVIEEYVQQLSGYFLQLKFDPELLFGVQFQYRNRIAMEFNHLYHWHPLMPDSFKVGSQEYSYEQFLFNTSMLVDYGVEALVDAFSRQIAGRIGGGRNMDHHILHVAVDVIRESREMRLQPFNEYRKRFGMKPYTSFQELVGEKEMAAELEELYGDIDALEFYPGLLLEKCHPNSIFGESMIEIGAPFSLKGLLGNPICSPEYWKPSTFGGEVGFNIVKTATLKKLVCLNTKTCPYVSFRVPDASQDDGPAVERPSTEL

Consider `CCN(CC)c1ccc(-c2c(Cl)ncn2-c2ccc(S(C)(=O)=O)cc2)cc1` [Example 10, 4-Chloro-5-(4-N,N-diethylaminophenyl)-1-(4-methylsulfonylphenyl)imidazole], for which the “% Inhibition (0.1 μM) COX-1” value in test [1] worked out at 0%. In addition, the “% Inhibition (0.1 μM) COX-2” value in test [2] came to 64%. Take `COc1cc(-c2c(Cl)ncn2-c2ccc(S(C)(=O)=O)cc2)ccc1F` [Example 2, 4-Chloro-5-(4-fluoro-3-methoxyphenyl)-1-(4-methylsulfonylphenyl)imidazole]: the inhibition at 0.1 µM in test [1] was 0%; in test [2], 82%.

As for `CCOc1ccc(-c2c(Cl)ncn2-c2ccc(S(N)(=O)=O)cc2)cc1Cl` [Example 13, 4-[4-Chloro-5-(3-chloro-4-ethoxyphenyl)imidazol-1-yl]benzenesulfonamide], the inhibition at 0.1 µM in test [1] came out at 0%; in test [2], 97%. Taken in the same sequence, the figures for `CCOc1ccc(-c2c(Cl)ncn2-c2ccc(S(C)(=O)=O)cc2)cc1F` [Example 3, 4-Chloro-5-(4-ethoxy-3-fluorophenyl)-1-(4-methylsulfonylphenyl)imidazole] were 15% and 76%.

`COc1cc(-c2c(Cl)ncn2-c2ccc(S(N)(=O)=O)cc2)ccc1F` [Example 11, 4-[4-Chloro-5-(4-fluoro-3-methoxyphenyl)imidazol-1-yl]benzenesulfonamide]: the inhibition at 0.1 µM in test [1] is 0%; in test [2] it was 88%. In the case of `CS(=O)(=O)c1ccc(-n2cnc(Cl)c2-c2ccc3c(c2)OCO3)cc1` [Example 7, 4-Chloro-5-[3,4-(methylenedioxy)phenyl]-1-(4-methylsulfonylphenyl)imidazole], the “% Inhibition (0.1 μM) COX-1” value in test [1] turned out to be 1%.

On to `CS(=O)(=O)c1ccc(-n2cnc(Cl)c2-c2cc(F)cc(F)c2)cc1` [Example 4, 4-Chloro-5-(3,5-difluorophenyl)-1-(4-methylsulfonylphenyl)imidazole], for which the inhibition at 0.1 µM in test [1] turned out to be 2%; in test [2], 57%. Turning to `CC(C)Oc1ccc(-c2c(Cl)ncn2-c2ccc(S(C)(=O)=O)cc2)cc1` [Example 1, 4-Chloro-5-(4-isopropoxyphenyl)-1-(4-methylsulfonylphenyl)imidazole], the inhibition at 0.1 µM was 0% in test [1] and 52% in test [2]. Consider `COc1ccc(-c2c(Cl)ncn2-c2ccc(S(C)(=O)=O)cc2)cc1Cl` [Example 5, 4-Chloro-5-(3-chloro-4-methoxyphenyl)-1-(4-methylsulfonylphenyl)imidazole], for which the inhibition at 0.1 µM is 17% in test [1] and 92% in test [2]. In the case of `CCCc1ccc(-c2c(Cl)ncn2-c2ccc(S(C)(=O)=O)cc2)cc1` [Example 16, 4-Chloro-1-(4-methylsulfonylphenyl)-5-(4-propylphenyl)imidazole], the inhibition at 0.1 µM in test [1] came out at 0%; in test [2] it was 48%. Turning to `COc1ccc(-c2c(Cl)ncn2-c2ccc(S(N)(=O)=O)cc2)cc1Cl` [Example 14, 4-[4-Chloro-5-(3-chloro-4-methoxyphenyl)imidazol-1-yl]benzenesulfonamide], the inhibition at 0.1 µM is 8% in test [1] and 87% in test [2].

In the case of `CCOc1ccc(-c2c(Cl)ncn2-c2ccc(S(C)(=O)=O)cc2)cc1Cl` [Example 6, 4-Chloro-5-(3-chloro-4-ethoxyphenyl)-1-(4-methylsulfonylphenyl)imidazole], the inhibition at 0.1 µM in test [1] worked out at 0%; in test [2], 87%. With `COc1c(Cl)cc(-c2c(Cl)ncn2-c2ccc(S(N)(=O)=O)cc2)cc1Cl` [Example 15, 4-[4-Chloro-5-(3,5-dichloro-4-methoxyphenyl)imidazol-1-yl]benzenesulfonamide Hydrochloride], the figures for the inhibition at 0.1 µM in test [1] and in test [2] were 0% and 90%, respectively. For the molecule `CCOc1ccc(-c2c(Cl)ncn2-c2ccc(S(N)(=O)=O)cc2)cc1F` [Example 12, 4-[4-Chloro-5-(4-ethoxy-3-fluorophenyl)imidazol-1-yl]benzenesulfonamide], the results for the inhibition at 0.1 µM in test [1] and in test [2] were 0% and 65%, respectively. Consider `CC(C)c1ccc(-c2c(Cl)ncn2-c2ccc(S(C)(=O)=O)cc2)cc1` [Example 9, 4-Chloro-5-(4-isopropylphenyl)-1-(4-methylsulfonylphenyl)imidazole], for which the inhibition at 0.1 µM in test [1] came out at 0%; in test [2], 82%. With `COc1c(Cl)cc(-c2c(Cl)ncn2-c2ccc(S(C)(=O)=O)cc2)cc1Cl` [Example 8, 4-Chloro-5-(3,5-dichloro-4-methoxyphenyl)-1-(4-methylsulfonylphenyl)imidazole], the inhibition at 0.1 µM in test [1] came out at 0%; in test [2] it was 92%.
